Laboratory results from US6803385B2, “Hydroxyeicosatetraenoic acid analogs and methods of their use in treating dry eye disorders” (Alcon, Inc., priority 1999, dated 2004).

Test system: rabbit model of dry eye (corneal staining)
Assay: Inhibition of corneal staining in a rabbit model of dry eye (ConA lacrimal gland inflammation plus desiccation, methylene blue uptake)
Assay type: in vivo, New Zealand white rabbits
Conditions: 1 μM, topical QID 50 μl, methylene blue corneal staining (A660) vs BSS vehicle
Experimental: Compounds 173 and 175 were evaluated for their ability to inhibit corneal staining in a rabbit model of dry eye, as per the following experimental protocol.
New Zealand white (NZA) rabbits (approximately 2.5 kg) were obtained from Myrtle's Rabbitry (Thompson Station, Tenn.). Animals were maintained in a controlled environment with a 12-hour on/off light cycle at 65±5° F. and at least 30% humidity. All aspects of animal handling, housing and experimentation conformed to the ARVO Statement for the Use of Animals in Ophthalmic and Vision Research.
Rabbits were randomized and dosed topically QID with 50 μl of test article or BSS® solution beginning 24 hours prior to lacrimal gland injection. […]
Desiccation was initiated three days following ConA injection by placing conscious rabbits into an environmental chamber (20%-30% humidity/75° F.). […] The concentration of the extracted dye was determined spectrophotometrically by measuring its absorbance at λ=660 nanometers (A660). Data are expressed as mean±standard deviation (S.D.). Percent inhibition was calculated as {1−[(A660test item−A660Normal)/(A660BSS−A660Normal)]}×100, where A660test item is the absorbance of dye from ConA-injected eyes dosed with the test item, A660Normal is the absorbance of dye from saline-injected eyes, and A660BSS is the absorbance of dye in ConA-injected eyes dosed with BSS® solution vehicle.

CCCCC[C@H](O)/C=C/C=C\C/C=C\C/C=C\CCCC(=O)O [Compound 15S-HETE, (15S)-(5Z,8Z,11Z,13E)-15-hydroxy-eicosa-5,8,11,13-tetraenoic acid]
% Inhibition ± S.D. (Experiment 1): 70 ± 18%
% Inhibition ± S.D. (Experiment 2): 77% ± 18%
